These results are taken from patent US9586961B2, “Homopiperazine derivatives as protein tyrosine kinase inhibitors and pharmaceutical use thereof” (LEO PHARMA A/S, priority 2010, dated 2017).

Holding throughout (format): biochemical
For one experiment, the target named is T1, JAK2 (Homo sapiens, UniProt O60674).
T1 construct: All four purified enzymes contain only the catalytic domain; His (N); purchased Carna Biosciences, Inc; host or cells: baculovirus expression system
The experiment is described as follows: JAK2 kinase assay (HTRF, inhibition of phosphorylation of a synthetic peptide). To be noted: catalytic domain, His-tag; 4 μM ATP (Km); read-out: JAK2 kinase inhibitory activity (EC50). In short, it runs like this:
(§1)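 Baculovirus-expressed human catalytic domains (GST-JAK1, GST-TYK2, His-JAK2, His-JAK3) phosphorylated 1 μM TK substrate-biotin at ATP Km (JAK1 7 μM, JAK2 4 μM, JAK3 2 μM, TYK2 13 μM) in pH 7.0 Hepes for 20-30 min at RT, 0.75% DMSO. EDTA stop, then overnight streptavidin-XL665/cryptate-antibody detection and HTRF read.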
(In TR-FRET formats the signal depends on donor and acceptor labels being close together.)

The next experiment addresses T2, JAK1 (Homo sapiens, UniProt P23458).
T2 construct: JAK1 (aa 850-1154) and TYK2 (aa 871-1187) are expressed with an N-terminally fused GST-tag; GST (N); purchased Carna Biosciences, Inc; host or cells: baculovirus expression system
The experiment is described as follows: JAK1 kinase assay (HTRF, inhibition of phosphorylation of a synthetic peptide). To be noted: catalytic domain aa 850-1154, GST-tag; 7 μM ATP (Km); read-out: JAK1 kinase inhibitory activity (EC50). In short, it runs like this: as §1

Another experiment deals with T3, JAK3 (Homo sapiens, UniProt P52333).
T3 construct: All four purified enzymes contain only the catalytic domain; His (N); purchased Carna Biosciences, Inc; host or cells: baculovirus expression system
Kind of experiment: JAK3 kinase assay (HTRF, inhibition of phosphorylation of a synthetic peptide). The following applies: catalytic domain, His-tag; 2 μM ATP (Km); read-out: JAK3 kinase inhibitory activity (EC50). The method, boiled down: as §1

Where only a bound is given, the exact number is not on record here.

T2 sequence (P23458 850-1154): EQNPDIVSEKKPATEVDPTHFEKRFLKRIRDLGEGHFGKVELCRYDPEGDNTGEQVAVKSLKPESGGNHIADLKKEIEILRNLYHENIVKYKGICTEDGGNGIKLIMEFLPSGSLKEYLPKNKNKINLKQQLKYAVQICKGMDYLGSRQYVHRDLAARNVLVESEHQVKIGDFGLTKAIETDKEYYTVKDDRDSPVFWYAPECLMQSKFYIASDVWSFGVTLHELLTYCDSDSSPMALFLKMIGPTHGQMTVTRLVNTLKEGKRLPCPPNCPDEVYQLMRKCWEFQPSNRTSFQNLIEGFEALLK
T3 sequence (P52333 822-1111 limits assumed): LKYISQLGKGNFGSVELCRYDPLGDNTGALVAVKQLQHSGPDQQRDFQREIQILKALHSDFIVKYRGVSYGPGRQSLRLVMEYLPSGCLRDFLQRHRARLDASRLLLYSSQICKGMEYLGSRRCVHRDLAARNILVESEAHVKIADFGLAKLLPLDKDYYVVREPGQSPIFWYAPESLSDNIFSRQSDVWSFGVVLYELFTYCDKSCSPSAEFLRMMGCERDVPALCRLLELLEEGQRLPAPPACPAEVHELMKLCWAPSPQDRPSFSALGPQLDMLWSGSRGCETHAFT
T1 sequence (O60674 849-1124 limits assumed): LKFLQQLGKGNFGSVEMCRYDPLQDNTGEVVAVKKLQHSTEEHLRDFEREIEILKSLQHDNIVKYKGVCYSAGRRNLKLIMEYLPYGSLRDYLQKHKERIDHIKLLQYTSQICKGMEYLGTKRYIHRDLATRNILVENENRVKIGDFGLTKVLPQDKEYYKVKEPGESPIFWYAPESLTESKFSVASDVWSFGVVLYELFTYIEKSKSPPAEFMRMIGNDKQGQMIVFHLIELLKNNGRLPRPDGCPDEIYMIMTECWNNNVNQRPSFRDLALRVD

Turning to `Cc1ncc(CC(=O)N2CCN(c3ncnc4[nH]ccc34)CC3(CC3)C2)s1` [Example 247, 2-(2-methylthiazol-5-yl)-1-[5-(7H-pyrrolo[2,3-d]pyrimidin-4-yl)-5,8-diazaspiro[2.6]nonan-8-yl]ethanone], the results for the EC50 on JAK2, on JAK1 and on JAK3 were under 100 nM, 100 to 1000 nM and over 1000 nM, respectively.

`Cc1cc(CC(=O)N2CCN(c3ncnc4[nH]ccc34)CC3(CC3)C2)n[nH]1` [Example 248, 2-(5-methyl-1H-pyrazol-3-yl)-1-[5-(7H-pyrrolo[2,3-d]pyrimidin-4-yl)-5,8-diazaspiro[2.6]nonan-8-yl]ethanone]: the EC50 on JAK2 was under 100 nM; at JAK1, 100 to 1000 nM; at JAK3 it was over 1000 nM.

Regarding `Cc1noc(C)c1CC(=O)N1CCN(c2ncnc3[nH]ccc23)CC2(CC2)C1` [Example 249, 2-(3,5-dimethylisoxazol-4-yl)-1-[5-(7H-pyrrolo[2,3-d]pyrimidin-4-yl)-5,8-diazaspiro[2.6]nonan-8-yl]ethanone], the EC50 on JAK2 is 100 to 1000 nM; at JAK1 it was 100 to 1000 nM; at JAK3, over 1000 nM.

Take `Cc1n[nH]c(CC(=O)N2CCN(c3ncnc4[nH]ccc34)CC3(CC3)C2)n1` [Example 250, 2-(3-methyl-1H-1,2,4-triazol-5-yl)-1-[5-(7H-pyrrolo[2,3-d]pyrimidin-4-yl)-5,8-diazaspiro[2.6]nonan-8-yl]ethanone]: the concentration giving a half-maximal response (EC50) at JAK2, on JAK1 and at JAK3 was 100 to 1000 nM each time.

For `Cc1nonc1CC(=O)N1CCN(c2ncnc3[nH]ccc23)CC2(CC2)C1` [Example 251, 2-(4-methyl-1,2,5-oxadiazol-3-yl)-1-[5-(7H-pyrrolo[2,3-d]pyrimidin-4-yl)-5,8-diazaspiro[2.6]nonan-8-yl]ethanone], the values for the EC50 on JAK2, at JAK1 and at JAK3 were under 100 nM, under 100 nM and 100 to 1000 nM, respectively.

As to `O=C(Cc1cncs1)N1CCN(c2ncnc3[nH]ccc23)CC2(CC2)C1` [Example 252, 1-[5-(7H-pyrrolo[2,3-d]pyrimidin-4-yl)-5,8-diazaspiro[2.6]nonan-8-yl]-2-thiazol-5-yl-ethanone], the EC50 at JAK2 was under 100 nM; at JAK1, 100 to 1000 nM; at JAK3 it was 100 to 1000 nM.

As to `Cn1cc(CC(=O)N2CCN(c3ncnc4[nH]ccc34)CC3(CC3)C2)cn1` [Example 253, 2-(1-methylpyrazol-4-yl)-1-[5-(7H-pyrrolo[2,3-d]pyrimidin-4-yl)-5,8-diazaspiro[2.6]nonan-8-yl]ethanone], the values for the EC50 on JAK2, on JAK1 and at JAK3 were 100 to 1000 nM, 100 to 1000 nM and over 1000 nM, respectively.

Turning to `Cc1nc(CC(=O)N2CCN(c3ncnc4[nH]ccc34)CC3(CC3)C2)cs1` [Example 254, 2-(2-methylthiazol-4-yl)-1-[5-(7H-pyrrolo[2,3-d]pyrimidin-4-yl)-5,8-diazaspiro[2.6]nonan-8-yl]ethanone], the concentration for a half-maximal effect (EC50) at JAK2 was 100 to 1000 nM; at JAK1, 100 to 1000 nM; on JAK3 it was over 1000 nM.

For the molecule `Cc1nnc(C(=O)N2CCCN(c3ncnc4[nH]ccc34)CC23CC3)[nH]1` [Example 257, (5-methyl-4H-1,2,4-triazol-3-yl)-[5-(7H-pyrrolo[2,3-d]pyrimidin-4-yl)-5,9-diazaspiro[2.6]nonan-9-yl]methanone], the EC50 is 100 to 1000 nM at JAK2, 100 to 1000 nM on JAK1 and over 1000 nM at JAK3.

Regarding `O=C(Cc1ccccc1)N1CCN(c2ncnc3[nH]ccc23)CC2(CC2)C1` [Example 259, 2-phenyl-1-[5-(7H-pyrrolo[2,3-d]pyrimidin-4-yl)-5,8-diazaspiro[2.6]nonan-8-yl]ethanone], the EC50 was under 100 nM at JAK2, 100 to 1000 nM at JAK1 and 100 to 1000 nM on JAK3.

`O=C(N1CCN(c2ncnc3[nH]ccc23)CC2(CC2)C1)C1(c2ccccc2)CC1` [Example 260, (1-phenylcyclopropyl)-[5-(7H-pyrrolo[2,3-d]pyrimidin-4-yl)-5,8-diazaspiro[2.6]nonan-8-yl]methanone]: the results for the EC50 at JAK2, on JAK1 and at JAK3 were 100 to 1000 nM, over 1000 nM and over 1000 nM, respectively.

As to `COc1ccc(CC(=O)N2CCN(c3ncnc4[nH]ccc34)CC3(CC3)C2)cc1` [Example 261, 2-(4-methoxyphenyl)-1-[5-(7H-pyrrolo[2,3-d]pyrimidin-4-yl)-5,8-diazaspiro[2.6]nonan-8-yl]ethanone], the EC50 on JAK2 was under 100 nM; at JAK1, 100 to 1000 nM; on JAK3, 100 to 1000 nM.

Take `Cc1cccc(CC(=O)N2CCN(c3ncnc4[nH]ccc34)CC3(CC3)C2)c1` [Example 262, 2-(m-tolyl)-1-[5-(7H-pyrrolo[2,3-d]pyrimidin-4-yl)-5,8-diazaspiro[2.6]nonan-8-yl]ethanone]: the results for the concentration for a half-maximal effect (EC50) at JAK2, on JAK1 and on JAK3 were under 100 nM, 100 to 1000 nM and over 1000 nM, respectively.

`O=C(Cc1ccc2ccccc2c1)N1CCN(c2ncnc3[nH]ccc23)CC2(CC2)C1` [Example 265, 2-(2-naphthyl)-1-[5-(7H-pyrrolo[2,3-d]pyrimidin-4-yl)-5,8-diazaspiro[2.6]nonan-8-yl]ethanone]: the EC50 was under 100 nM at JAK2, 100 to 1000 nM at JAK1 and 100 to 1000 nM on JAK3.

As to `N#CCc1ccc(CC(=O)N2CCN(c3ncnc4[nH]ccc34)CC3(CC3)C2)cc1` [Example 266, 2-[4-[2-oxo-2-[5-(7H-pyrrolo[2,3-d]pyrimidin-4-yl)-5,8-diazaspiro[2.6]nonan-8-yl]ethyl]phenyl]acetonitrile], the figures for the EC50 on JAK2, on JAK1 and at JAK3 were under 100 nM, under 100 nM and 100 to 1000 nM, respectively.

On to `CC(C)(C)c1ccc(CC(=O)N2CCN(c3ncnc4[nH]ccc34)CC3(CC3)C2)cc1` [Example 267, 2-(4-tert-butylphenyl)-1-[5-(7H-pyrrolo[2,3-d]pyrimidin-4-yl)-5,8-diazaspiro[2.6]nonan-8-yl]ethanone], for which the EC50 on JAK2, at JAK1 and at JAK3 was 100 to 1000 nM throughout.

For `CN(C)c1ccc(CC(=O)N2CCN(c3ncnc4[nH]ccc34)CC3(CC3)C2)cc1` [Example 268, 2-(4-dimethylaminophenyl)-1-[5-(7H-pyrrolo[2,3-d]pyrimidin-4-yl)-5,8-diazaspiro[2.6]nonan-8-yl]ethanone], the figures for the EC50 at JAK2, at JAK1 and at JAK3 were under 100 nM, 100 to 1000 nM and 100 to 1000 nM, respectively.

Turning to `CC(C)(C(=O)N1CCN(c2ncnc3[nH]ccc23)CC2(CC2)C1)c1ccc(Cl)cc1` [Example 269, 2-(4-chlorophenyl)-2-methyl-1-[5-(7H-pyrrolo[2,3-d]pyrimidin-4-yl)-5,8-diazaspiro[2.6]nonan-8-yl]propan-1-one], the EC50 at JAK2, on JAK1 and on JAK3 was 100 to 1000 nM each time.

As for `O=C(Cc1ccc(Cl)cc1Cl)N1CCN(c2ncnc3[nH]ccc23)CC2(CC2)C1` [Example 270, 2-(2,4-dichlorophenyl)-1-[5-(7H-pyrrolo[2,3-d]pyrimidin-4-yl)-5,8-diazaspiro[2.6]nonan-8-yl]ethanone], the 50% effective concentration (EC50) was under 100 nM at JAK2, 100 to 1000 nM at JAK1 and 100 to 1000 nM at JAK3.

For `N#Cc1ccccc1CC(=O)N1CCN(c2ncnc3[nH]ccc23)CC2(CC2)C1` [Example 272, 2-[2-oxo-2-[5-(7H-pyrrolo[2,3-d]pyrimidin-4-yl)-5,8-diazaspiro[2.6]nonan-8-yl]ethyl]benzonitrile], the EC50 is under 100 nM on JAK2, 100 to 1000 nM on JAK1 and 100 to 1000 nM at JAK3.

Turning to `N#Cc1cc(CC(=O)N2CCN(c3ncnc4[nH]ccc34)CC3(CC3)C2)ccc1F` [Example 273, 2-fluoro-5-[2-oxo-2-[5-(7H-pyrrolo[2,3-d]pyrimidin-4-yl)-5,8-diazaspiro[2.6]nonan-8-yl]ethyl]benzonitrile], the concentration giving a half-maximal response (EC50) on JAK2 was under 100 nM; on JAK1, 100 to 1000 nM; at JAK3 it was 100 to 1000 nM.

With `CC(C(=O)N1CCN(c2ncnc3[nH]ccc23)CC2(CC2)C1)c1ccccc1` (stereo not drawn) [Example 275, 2-phenyl-1-[5-(7H-pyrrolo[2,3-d]pyrimidin-4-yl)-5,8-diazaspiro[2.6]nonan-8-yl]propan-1-one], the concentration for a half-maximal effect (EC50) at JAK2 is under 100 nM; on JAK1, 100 to 1000 nM; on JAK3 it was 100 to 1000 nM.

Consider `CC(=O)Nc1ccc(CC(=O)N2CCN(c3ncnc4[nH]ccc34)CC3(CC3)C2)cc1` [Example 276], for which the EC50 on JAK2 is 100 to 1000 nM; at JAK1, 100 to 1000 nM; on JAK3 it was over 1000 nM.

With `c1ccc(CN2CCCN(c3ncnc4[nH]ccc34)CC23CC3)cc1` [Example 280, 4-(9-benzyl-5,9-diazaspiro[2.6]nonan-5-yl)-7H-pyrrolo[2,3-d]pyrimidine], the EC50 on JAK2 is 100 to 1000 nM; on JAK1, over 1000 nM; on JAK3, over 1000 nM.

What is called EC50 is the concentration needed to bring the measured effect to its halfway point.
